Results reported in ChEMBL document CHEMBL2396526, “Chromenylchalcones showing cytotoxicity on human colon cancer cell lines and in silico docking with aurora kinases” (Bioorg Med Chem, 2013).
Active and inactive are the calls of the source. The calls are words filed in the database; no cut-off is given here.

Tests used:
HCT-116 [1] = assay: Induction of apoptosis in human HCT116 cells assessed as DNA content at G1 phase at 20 uM after 24 hrs by annexin V-FITC/propidium iodide staining-based flow cytometric analysis (reference value: 8%); format: functional
HCT-116 [2] = assay: Induction of apoptosis in human HCT116 cells assessed as DNA content at sub-G1 phase at 20 uM after 24 hrs by annexin V-FITC/propidium iodide staining-based flow cytometric analysis (reference value: 92%); format: functional
HCT-116 [3] = assay: Induction of apoptosis in human HCT116 cells assessed as viable cells at 20 uM after 24 hrs by annexin V-FITC/propidium iodide staining-based flow cytometric analysis (reference value: 71 %); format: functional; details: HCT-116, 24 h, read-out: Activity
HCT-116 [4] = assay: Induction of apoptosis in human HCT116 cells assessed as dead cells at 20 uM after 24 hrs by annexin V-FITC/propidium iodide staining-based flow cytometric analysis (reference value: 2%); format: functional
HCT-116 [5] = assay: Induction of apoptosis in human HCT116 cells assessed as early apoptotic cells at 20 uM after 24 hrs by annexin V-FITC/propidium iodide staining-based flow cytometric analysis (reference value: 22%); format: functional
HCT-116 [6] = assay: Induction of apoptosis in human HCT116 cells assessed as late apoptotic cells at 20 uM after 24 hrs by annexin V-FITC/propidium iodide staining-based flow cytometric analysis (reference value: 5%); format: functional
Homo sapiens = species: Homo sapiens; assay: Inhibition of human Rsk
[7] = biological target: Vascular endothelial growth factor receptor 2 (Homo sapiens) (UniProt P35968); assay: Inhibition of human KDR
Chain of Vascular endothelial growth factor receptor 2 (Homo sapiens) (P35968 whole entry): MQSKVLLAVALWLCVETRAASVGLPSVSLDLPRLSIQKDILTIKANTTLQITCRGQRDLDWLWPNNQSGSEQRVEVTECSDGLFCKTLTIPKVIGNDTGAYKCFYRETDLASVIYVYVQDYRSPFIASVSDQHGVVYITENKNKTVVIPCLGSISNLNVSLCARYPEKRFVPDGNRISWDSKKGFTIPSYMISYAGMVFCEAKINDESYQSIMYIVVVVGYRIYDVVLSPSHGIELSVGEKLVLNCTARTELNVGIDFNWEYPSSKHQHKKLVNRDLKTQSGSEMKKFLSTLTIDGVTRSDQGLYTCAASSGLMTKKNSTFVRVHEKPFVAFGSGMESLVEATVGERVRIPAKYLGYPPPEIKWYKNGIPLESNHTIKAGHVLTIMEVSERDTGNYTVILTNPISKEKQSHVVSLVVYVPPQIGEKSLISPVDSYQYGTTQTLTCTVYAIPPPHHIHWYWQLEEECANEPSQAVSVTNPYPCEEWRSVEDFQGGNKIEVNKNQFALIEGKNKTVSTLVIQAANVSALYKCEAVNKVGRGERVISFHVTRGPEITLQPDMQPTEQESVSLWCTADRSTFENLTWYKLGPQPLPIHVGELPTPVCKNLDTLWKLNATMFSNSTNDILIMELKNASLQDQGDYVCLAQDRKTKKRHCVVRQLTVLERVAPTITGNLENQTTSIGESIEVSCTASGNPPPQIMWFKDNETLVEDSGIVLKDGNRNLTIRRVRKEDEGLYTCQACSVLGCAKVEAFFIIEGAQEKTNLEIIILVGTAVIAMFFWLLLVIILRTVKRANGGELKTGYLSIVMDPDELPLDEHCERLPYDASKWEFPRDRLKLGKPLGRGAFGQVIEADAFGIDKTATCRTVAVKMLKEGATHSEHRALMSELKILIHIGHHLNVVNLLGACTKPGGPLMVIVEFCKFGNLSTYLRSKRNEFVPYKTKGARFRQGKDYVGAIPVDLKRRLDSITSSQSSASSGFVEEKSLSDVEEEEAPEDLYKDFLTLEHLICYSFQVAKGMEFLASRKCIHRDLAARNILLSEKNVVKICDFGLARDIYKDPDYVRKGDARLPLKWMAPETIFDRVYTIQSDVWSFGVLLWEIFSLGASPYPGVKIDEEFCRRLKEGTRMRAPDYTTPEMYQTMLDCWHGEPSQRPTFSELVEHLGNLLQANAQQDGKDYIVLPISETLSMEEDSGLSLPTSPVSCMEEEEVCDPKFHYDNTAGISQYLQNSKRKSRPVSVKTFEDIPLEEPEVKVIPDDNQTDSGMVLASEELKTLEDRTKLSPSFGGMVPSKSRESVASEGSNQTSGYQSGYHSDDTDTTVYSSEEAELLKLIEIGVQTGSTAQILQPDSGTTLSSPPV

[8] = biological target: T1, Serine/threonine-protein kinase Chk1 (Homo sapiens) (UniProt O14757); assay: Inhibition of human CHK1
T1 sequence (whole entry): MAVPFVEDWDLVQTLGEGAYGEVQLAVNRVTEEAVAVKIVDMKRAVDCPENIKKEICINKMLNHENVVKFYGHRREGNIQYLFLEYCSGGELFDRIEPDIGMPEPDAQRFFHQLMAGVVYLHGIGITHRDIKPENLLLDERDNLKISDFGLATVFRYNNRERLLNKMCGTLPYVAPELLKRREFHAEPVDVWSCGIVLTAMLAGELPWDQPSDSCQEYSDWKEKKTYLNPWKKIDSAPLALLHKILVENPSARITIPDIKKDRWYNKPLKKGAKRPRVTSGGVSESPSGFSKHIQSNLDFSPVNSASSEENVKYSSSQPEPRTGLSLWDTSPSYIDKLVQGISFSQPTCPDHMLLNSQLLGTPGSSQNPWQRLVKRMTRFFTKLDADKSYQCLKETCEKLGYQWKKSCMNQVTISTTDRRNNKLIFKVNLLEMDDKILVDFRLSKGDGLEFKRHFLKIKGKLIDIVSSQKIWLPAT

[9] = biological target: Aurora kinase B (Homo sapiens) (UniProt Q96GD4); assay: Inhibition of human aurora-B; details: concentration not given here
Chain of Aurora kinase B (Homo sapiens) (Q96GD4 whole entry): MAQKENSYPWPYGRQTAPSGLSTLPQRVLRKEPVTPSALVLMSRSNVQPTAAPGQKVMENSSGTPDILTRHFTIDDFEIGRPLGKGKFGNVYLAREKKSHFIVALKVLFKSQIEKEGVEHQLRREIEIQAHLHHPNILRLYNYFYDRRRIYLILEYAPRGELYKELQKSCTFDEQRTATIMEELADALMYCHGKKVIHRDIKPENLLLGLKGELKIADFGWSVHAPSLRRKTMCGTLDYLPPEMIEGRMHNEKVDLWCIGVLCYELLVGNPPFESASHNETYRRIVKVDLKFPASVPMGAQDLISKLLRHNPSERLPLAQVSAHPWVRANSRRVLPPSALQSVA

[10] = biological target: T2, Aurora kinase A (Homo sapiens) (UniProt O14965); assay: Inhibition of human aurora-A; details: concentration not given here
T2 sequence (whole entry): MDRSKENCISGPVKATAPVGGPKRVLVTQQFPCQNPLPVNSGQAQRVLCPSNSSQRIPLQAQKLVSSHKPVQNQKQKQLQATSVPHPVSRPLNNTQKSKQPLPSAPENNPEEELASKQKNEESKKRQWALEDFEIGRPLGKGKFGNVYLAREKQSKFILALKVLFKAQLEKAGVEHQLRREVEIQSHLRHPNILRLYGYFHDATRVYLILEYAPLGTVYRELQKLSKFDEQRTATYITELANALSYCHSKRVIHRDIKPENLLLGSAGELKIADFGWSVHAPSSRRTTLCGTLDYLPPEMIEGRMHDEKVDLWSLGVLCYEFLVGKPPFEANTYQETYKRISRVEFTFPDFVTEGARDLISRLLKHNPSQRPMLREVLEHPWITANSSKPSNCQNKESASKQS

HCT-116 [11] = assay: Induction of apoptosis in human HCT116 cells assessed as appearance of cleaved caspase-7 at fragmented chromosomes at 20 uM after 24 hrs by Hoechst 33258 staining-based fluorescence microscopic analysis; format: functional, cell-based
HCT-116 [12] = assay: Induction of apoptosis in human HCT116 cells assessed as PARP cleavage at 20 uM after 24 to 48 hrs by Western blot analysis; format: functional, cell-based
HCT-116 [13] = assay: Induction of apoptosis in human HCT116 cells assessed as caspase-7 cleavage at 20 uM by Western blot analysis; format: functional, cell-based; details: TDE = time-dependent effect
HCT-116 [14] = assay: Cell cycle arrest in human HCT116 cells assessed as accumulation at sub-G1 phase at 20 uM by propidium iodide staining-based flow cytometric analysis; format: functional; details: TDE = time-dependent effect
HCT-116 [15] = assay: Cell cycle arrest in human HCT116 cells assessed as accumulation at G1 phase at 20 uM after 48 hrs by propidium iodide staining-based flow cytometric analysis (reference value: 2.9%); format: functional
HCT-116 [16] = assay: Cell cycle arrest in human HCT116 cells assessed as accumulation at G2/M phase at 20 uM after 24 hrs by propidium iodide staining-based flow cytometric analysis (reference value: 2.9%); format: functional
HCT-116 [17] = assay: Cell cycle arrest in human HCT116 cells assessed as accumulation at S phase at 20 uM after 24 hrs by propidium iodide staining-based flow cytometric analysis (reference value: 2.9%); format: functional
HCT-116 [18] = assay: Cell cycle arrest in human HCT116 cells assessed as accumulation at G1 phase at 20 uM after 24 hrs by propidium iodide staining-based flow cytometric analysis (reference value: 2.9%); format: functional
HCT-116 [19] = assay: Cell cycle arrest in human HCT116 cells assessed as accumulation at sub-G1 phase at 20 uM after 24 hrs by propidium iodide staining-based flow cytometric analysis (reference value: 2.9%); format: functional
HCT-116 [20] = assay: Cell cycle arrest in human HCT116 cells assessed as accumulation at G2/M phase at 20 uM after 12 hrs by propidium iodide staining-based flow cytometric analysis (reference value: 20.8%); format: functional
HCT-116 [21] = assay: Cell cycle arrest in human HCT116 cells assessed as accumulation at sub-G1 phase at 20 uM after 12 hrs by propidium iodide staining-based flow cytometric analysis (reference value: 2.9%); format: functional
HCT-116 [22] = assay: Cytotoxicity against human HCT116 cells assessed as cell survival at 0.5 to 5 uM after 7 days by crystal violet staining assay; format: functional, cell-based; details: HCT-116, 168 h
HCT-116 [23] = assay: Cytotoxicity against human HCT116 cells assessed as cell survival at 5 to 40 uM after 7 days by crystal violet staining assay; format: functional, cell-based; details: HCT-116, 168 h

SMILES: COc1ccc2c(c1)C=C(C(=O)/C=C/c1c(OC)cc(OC)cc1OC)CO2
- Activity (HCT-116 [1]): 99%
- Activity (HCT-116 [2]): 1%
- viability at 20 µM (HCT-116 [3]): 0%
- Activity (HCT-116 [4]): 0%
- Activity (HCT-116 [5]): 86%
- Activity (HCT-116 [6]): 14%
- inhibition (Homo sapiens): inactive
- inhibition [7]: inactive
- inhibition [8]: inactive
- inhibition [9]: 65%
- inhibition [10]: 69%
- Activity (HCT-116 [11]): Active
- Activity (HCT-116 [12]): Active
- Activity (HCT-116 [13]): tde
- Activity (HCT-116 [14]): tde
- Activity (HCT-116 [15]): 29.5%
- Activity (HCT-116 [16]): 21.5%
- Activity (HCT-116 [17]): 13.6%
- Activity (HCT-116 [18]): 23.1%
- Activity (HCT-116 [19]): 35.3%
- Activity (HCT-116 [20]): 44.2%
- Activity (HCT-116 [21]): 15.1%
- IC50 (HCT-116 [22]): 96.7 nM
- IC50 (HCT-116 [23]): 93 nM
